{
  "source": "patent US20250248954A1",
  "about": "“PHARMACEUTICAL COMPOSITION FOR PREVENTING OR TREATING DIABETIC STROKE, CONTAINING RAGE ANTAGONIST AND AGE SCAVENGER” (AJOU UNIVERSITY INDUSTRY-ACADEMIC COOPERATION FOUNDATION, priority 2022, published 2025)",
  "format_in_all_cases": "in vivo, SD rats",
  "key": {"[1]": {"system": "experimental animal model of diabetes mellitus (DM) subjected to tMCAO", "experiment": "Diabetic (STZ, 34 days) rat 30-minute tMCAO model: body weight, blood glucose, glycated hemoglobin, brain injury by MRI", "conditions": "diabetic rats, vs DM-vehicle", "method": "(§1) Specifically, these were carried out as follows. To produce an experimental animal model of diabetes mellitus (DM), 7-week-old male SD rats were fasted for 16 hours. Thereafter, streptozotocin (STZ) was administered to the rats, and on day 3, blood glucose levels were measured. The rats were divided into a vehicle group and an aminoguanidine (AG) group, which had similar average blood glucose levels, and were maintained for 34 days. The AG group was orally administered 100 mg/kg of aminoguanidine once a day starting from day 4 after diabetes induction, and was finally administered aminoguanidine within 30 minutes after MCAO. On day 1 after MCAO, the mNSS test shown in FIG. 9 was performed, and then cerebral infarction was checked using an animal MRI system. Next, the rats were sacrificed, and plasma and brain tissue were collected and analyzed. For comparison, protein expression in the brain tissue from normal rats (sham) was used as a control. The impact on diabetes was evaluated by checking changes in body weight and blood glucose levels once a week after diabetes induction and checking final glycated hemoglobin levels after MCAO. To evaluate brain injury, the volume of cerebral infarction was determined using an animal MRI system."}, "[2]": {"system": "MGH1", "experiment": "MGH1 expression in brain tissue of diabetic tMCAO groups by immunohistochemical staining and Western blot", "conditions": "diabetic rats, day 1 after MCAO; 100 mg/kg orally once a day from day 4; vs vehicle group; FIG. 8", "method": "as §1, with “control.” for “control. The impact on diabetes was evaluated by checking changes in body weight and blood glucose levels once a week after diabetes induction and checking final glycated hemoglobin levels after MCAO. To evaluate brain injury, the volume of cerebral infarction was determined using an animal MRI system.”\nDay 1 after MCAO, the expression levels of MGH1 in the brain tissues from the diabetic groups were analyzed by immunohistochemical staining and Western blot analysis."}, "[3]": {"system": "hyperglycemic model subjected to temporary middle cerebral artery occlusion (tMCAO)", "experiment": "Hyperglycemic (STZ) rat 30-minute tMCAO cerebral ischemia model: body weight, mNSS test, brain injury (cresyl violet)", "conditions": "30 min MCAO, 10 mg/kg i.p. once a day", "method": "(§2) Specifically, these were carried out as follows. To produce an experimental animal model, 7-week-old male SD rats were fasted for 16 hours. Thereafter, streptozotocin (STZ) was administered to the rats, and after 3 days, fasting blood glucose levels were measured in the tail vein, and only animals with a blood glucose level of 300 mg/dl or more were used as a hyperglycemic model. A cerebral ischemia model was produced by subjecting the produced hyperglycemic model or a normoglycemic model to temporary middle cerebral artery occlusion (tMCAO). For MCAO, a coated suture was inserted through the right external carotid artery into the internal carotid artery, and inserted approximately 19 mm up to the middle cerebral artery (MCA). 30 minutes or 2 hours after insertion, the coated suture was removed, and a reperfusion model was used as a cerebral ischemia model. […] The normoglycemic group (NG), after 2 hours of MCAO, was divided into a vehicle group and an FPS-ZM1 group and used in the experiment. The hyperglycemic group (HG), after 30 minutes of MCAO, was divided into a vehicle group and an FPS-ZM1 group and used in the experiment. The FPS-ZM1 group in each of the normoglycemic group and the hyperglycemic group was injected intraperitoneally with 10 mg/kg of FPS-ZM1 within 5 minutes after MCAO reperfusion and injected with FPS-ZM1 once a day. After surgery, the mNSS (modified neurological severity score) test shown in FIG. 9 and weight measurement were conducted at a certain time every day to check body weight changes and neurobehavioral deficits of the experimental animals. In addition, rats were sacrificed 3 days after MCAO, and plasma and brain tissue were collected and analyzed.\n(§3) After performing MCAO, body weight measurement and the mNSS test were performed at the same time every day.\n(§4) To evaluate brain injury, the volume of cerebral infarction was determined by staining the entire brain with cresyl violet at 1-mm intervals."}, "[4]": {"system": "neuronal cell death, astrocytes and microglia, AGE and MGH1 in the cerebral cortex", "experiment": "Cresyl violet and immunohistochemical staining of cerebral cortex, hyperglycemic tMCAO group", "conditions": "HG, 30 min MCAO; 10 mg/kg i.p.; FIG. 4", "method": "Specifically, these were carried out as follows. To produce an experimental animal model, 7-week-old male SD rats were fasted for 16 hours. Thereafter, streptozotocin (STZ) was administered to the rats, and after 3 days, fasting blood glucose levels were measured in the tail vein, and only animals with a blood glucose level of 300 mg/dl or more were used as a hyperglycemic model. A cerebral ischemia model was produced by subjecting the produced hyperglycemic model or a normoglycemic model to temporary middle cerebral artery occlusion (tMCAO). For MCAO, a coated suture was inserted through the right external carotid artery into the internal carotid artery, and inserted approximately 19 mm up to the middle cerebral artery (MCA). 30 minutes or 2 hours after insertion, the coated suture was removed, and a reperfusion model was used as a cerebral ischemia model. Since cerebral infarction was rarely found in normoglycemic animals after 30-minute MCAO, a model subjected to 2 hours of MCAO was used and compared with the hyperglycemic group. The normoglycemic group (NG), after 2 hours of MCAO, was divided into a vehicle group and an FPS-ZM1 group and used in the experiment. The hyperglycemic group (HG), after 30 minutes of MCAO, was divided into a vehicle group and an FPS-ZM1 group and used in the experiment. The FPS-ZM1 group in each of the normoglycemic group and the hyperglycemic group was injected intraperitoneally with 10 mg/kg of FPS-ZM1 within 5 minutes after MCAO reperfusion and injected with FPS-ZM1 once a day. After surgery, the mNSS (modified neurological severity score) test shown in FIG. 9 and weight measurement were conducted at a certain time every day to check body weight changes and neurobehavioral deficits of the experimental animals. In addition, rats were sacrificed 3 days after MCAO, and plasma and brain tissue were collected and analyzed.\nThe degree of neuronal cell death in the cerebral cortex from each experimental group was analyzed using cresyl violet staining. In addition, immunohistochemistry was used to analyze the level of activity of astrocytes and microglia and the expression levels of AGE and MGH1 in the cells."}, "[5]": {"system": "normoglycemic model subjected to temporary middle cerebral artery occlusion (tMCAO)", "experiment": "Normoglycemic rat 2-hour tMCAO cerebral ischemia model: body weight, brain injury (cresyl violet)", "conditions": "2 h MCAO, 10 mg/kg i.p. once a day", "method": "as §2, §3, §4"}, "[6]": {"system": "RAGE, AGE, methylglyoxal (MGH1), GFAP", "experiment": "Western blot analysis of protein expression in brain tissue, hyperglycemic tMCAO group", "conditions": "HG, 30 min MCAO, 10 mg/kg i.p.", "method": "as §2, with “analyzed. After all experiments were completed, the protein expression levels of RAGE, AGE, and methylglyoxal (MGH1) in the brain tissue from each experimental group were analyzed by Western blot analysis. For comparison, protein expression in the brain tissue from normal rats (sham) was used as a control.” for “analyzed.”"}, "[7]": {"system": "ZO-1, occludin, claudin, Tie-2, VEGF, Ang-1, MMP-2, MMP-9", "experiment": "Real-time PCR of vascular-related factors in brain tissue after tMCAO", "conditions": "10 mg/kg i.p., FIG. 5", "method": "as §2, with “The FPS-ZM1 group in each of the normoglycemic group and the hyperglycemic group was injected intraperitoneally with 10 mg/kg of FPS-ZM1 within 5 minutes after MCAO reperfusion and injected with FPS-ZM1 once a day. After surgery, the mNSS (modified neurological severity score) test shown in FIG. 9 and weight measurement were conducted at a certain time every day to check body weight changes and neurobehavioral deficits of the experimental animals.” left out"}, "[8]": {"system": "neuronal cell death in the cerebral cortex", "experiment": "Cresyl violet staining of cerebral cortex, normoglycemic tMCAO group", "conditions": "NG, 2 h MCAO; 10 mg/kg i.p.; vs sham group; FIG. 4", "method": "Specifically, these were carried out as follows. To produce an experimental animal model, 7-week-old male SD rats were fasted for 16 hours. Thereafter, streptozotocin (STZ) was administered to the rats, and after 3 days, fasting blood glucose levels were measured in the tail vein, and only animals with a blood glucose level of 300 mg/dl or more were used as a hyperglycemic model. A cerebral ischemia model was produced by subjecting the produced hyperglycemic model or a normoglycemic model to temporary middle cerebral artery occlusion (tMCAO). For MCAO, a coated suture was inserted through the right external carotid artery into the internal carotid artery, and inserted approximately 19 mm up to the middle cerebral artery (MCA). 30 minutes or 2 hours after insertion, the coated suture was removed, and a reperfusion model was used as a cerebral ischemia model. Since cerebral infarction was rarely found in normoglycemic animals after 30-minute MCAO, a model subjected to 2 hours of MCAO was used and compared with the hyperglycemic group. […] In addition, rats were sacrificed 3 days after MCAO, and plasma and brain tissue were collected and analyzed.\nThe degree of neuronal cell death in the cerebral cortex from each experimental group was analyzed using cresyl violet staining. […]"}, "[9]": {"system": "RAGE, AGE, methylglyoxal (MGH1)", "experiment": "Western blot analysis of protein expression in brain tissue, normoglycemic tMCAO group", "conditions": "NG, 2 h MCAO, 10 mg/kg i.p.", "method": "as §2, with “analyzed. After all experiments were completed, the protein expression levels of RAGE, AGE, and methylglyoxal (MGH1) in the brain tissue from each experimental group were analyzed by Western blot analysis. For comparison, protein expression in the brain tissue from normal rats (sham) was used as a control.” for “analyzed.”"}, "[10]": {"conditions": "HG, 3 days after MCAO, vs HG-vehicle, cresyl violet"}, "[11]": {"conditions": "NG, 3 days after MCAO, vs NG-vehicle"}},
  "data": [
    {"smiles": "N=C(N)NN", "note": "[AG, aminoguanidine]", "values": [
      {"measurement": "brain injury (volume of cerebral infarction, animal MRI)", "setting": "[1]; 30 min MCAO on day 34, 100 mg/kg orally once a day from day 4, day 1 after MCAO", "value": "no significant difference"},
      {"measurement": "glycated hemoglobin level", "setting": "[1]; 100 mg/kg orally once a day from day 4, after MCAO", "value": "no significant difference"},
      {"measurement": "blood glucose level", "setting": "[1]; 100 mg/kg orally once a day from day 4", "value": "no significant difference"},
      {"measurement": "change in body weight", "setting": "[1]; 100 mg/kg orally once a day from day 4 after diabetes induction", "value": "not significantly different"},
      {"measurement": "expression level of MGH1 in brain tissue (immunohistochemical staining and Western blot)", "setting": "[2]", "value": "decreased"}
    ]},
    {"smiles": "O=C(c1ccc(Cl)cc1)N(Cc1ccccc1)C1CCCCC1", "note": "[FPS-ZM1]", "values": [
      {"measurement": "cross-sectional area of injury", "setting": "[3]; [10]", "value": "significantly decreased"},
      {"measurement": "volume of actual injury", "setting": "[3]; [10]", "value": "more significant in the HG-FPS-ZM1 group than in the HG-vehicle group"},
      {"measurement": "mNSS score", "setting": "[3]; HG, vs the other MCAO groups, FIG. 1C", "value": "significantly lower than those in the other groups"},
      {"measurement": "body weight change after MCAO", "setting": "[3]; hyperglycemic group (HG), vs initial body weight before MCAO, FIG. 1B", "value": "no reduction in body weight"},
      {"measurement": "activated astrocytes (GFAP staining)", "setting": "[4]", "value": "less observed"},
      {"measurement": "intracellular AGE staining", "setting": "[4]", "value": "less observed"},
      {"measurement": "intracellular MGH1 staining", "setting": "[4]", "value": "less observed"},
      {"measurement": "neuronal cell death / number of live cells in cerebral cortex (cresyl violet staining)", "setting": "[4]", "value": "the number of live cells was larger"},
      {"measurement": "cross-sectional area of injury", "setting": "[5]; [11]", "value": "difficult through the area photographs to confirm the degree of reduction"},
      {"measurement": "overall injury volume", "setting": "[5]; [11]", "value": "decreased slightly in the NG-FPS-ZM1 group, but this decrease was not significant"},
      {"measurement": "body weight change after MCAO", "setting": "[5]; normoglycemic group (NG), vs initial body weight before MCAO, FIG. 1B", "value": "decreased compared to the initial body weight"},
      {"measurement": "MGH1 protein expression level in brain tissue (Western blot)", "setting": "[6]; between all groups, FIG. 3", "value": "no significant difference"},
      {"measurement": "AGE expression level in brain tissue (Western blot)", "setting": "[6]; vs HG-vehicle", "value": "significantly lower"},
      {"measurement": "GFAP expression level in brain tissue (Western blot)", "setting": "[6]; vs HG-vehicle", "value": "significantly lower"},
      {"measurement": "expression level of MMP-9 in brain tissue (real-time PCR)", "setting": "[7]; HG, 30 min MCAO, vs HG-vehicle", "value": "significantly decreased in the HG-FPS-ZM1 group to a level similar to that in the sham group"},
      {"measurement": "expression levels of most vascular-related factors in brain tissue (real-time PCR)", "setting": "[7]; HG-FPS-ZM1 group compared to NG-FPS-ZM1 group", "value": "increased in the HG-FPS-ZM1 group compared to the NG-FPS-ZM1 group, but there was no significant difference between the groups"},
      {"measurement": "degree of neuronal cell death in cerebral cortex (cresyl violet staining)", "setting": "[8]", "value": "higher"},
      {"measurement": "MGH1 protein expression level in brain tissue (Western blot)", "setting": "[9]; between all groups, FIG. 3", "value": "no significant difference"},
      {"measurement": "AGE expression level in brain tissue (Western blot)", "setting": "[9]; vs NG-vehicle", "value": "no significant difference"},
      {"measurement": "RAGE expression level in brain tissue (Western blot)", "setting": "[9]; vs NG-vehicle", "value": "no significant difference"}
    ]}
  ]
}
